Measured values from patent US20250120927A1, “CNDP2 MODULATORS AND METHODS FOR THEIR USE” (Metabolon Inc., priority 2023, published 2025).
“And” between values parts separate entries of the source, which are not always exact repeats. Equal values may be shown once. Where a name gives a salt, the structure may show the parent alone.

molecular target: CNDP2 (Homo sapiens (Human), UniProt Q96KP4); test: CNDP2 enzyme inhibition assay (Met-His hydrolysis, free histidine by o-phthaldialdehyde fluorescence), dose-response; type: biochemical; details: 50 nM purified CNDP2 (Sino Biological), 1 mM Met-His substrate, 30 minutes at 37° C.; TABLE 1
Sequence (Q96KP4 whole entry): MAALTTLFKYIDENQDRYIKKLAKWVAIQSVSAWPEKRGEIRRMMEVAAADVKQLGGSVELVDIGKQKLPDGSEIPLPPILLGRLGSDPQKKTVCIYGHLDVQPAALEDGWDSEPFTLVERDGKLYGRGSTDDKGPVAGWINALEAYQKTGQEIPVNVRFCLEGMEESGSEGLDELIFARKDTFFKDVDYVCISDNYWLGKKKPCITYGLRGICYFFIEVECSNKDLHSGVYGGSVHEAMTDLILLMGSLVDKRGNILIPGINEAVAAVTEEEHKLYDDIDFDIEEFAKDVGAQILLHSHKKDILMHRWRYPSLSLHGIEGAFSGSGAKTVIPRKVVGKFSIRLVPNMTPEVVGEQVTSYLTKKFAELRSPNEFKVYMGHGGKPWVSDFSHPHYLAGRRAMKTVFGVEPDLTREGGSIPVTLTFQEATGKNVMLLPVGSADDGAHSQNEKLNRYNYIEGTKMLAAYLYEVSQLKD
Protocol: To identify optimal conditions for identifying novel inhibitors of CNDP2, enzyme assays were performed with varied sources of purified enzyme, concentrations of enzyme, peptide substrates, concentrations of peptide substrates and metal cofactors. […] The reaction mixture was incubated for 30 minutes at 37° C. before it was quenched with an equal volume of 1% TCA. Free histidine was quantified after derivatization with a fluorophore (o-phthaldialdehyde from Sigma-Aldrich, excitation 340 nm, emission 460 nm). The reaction was conducted in an automation-friendly format to meet future screening throughput demands. A histidine titration standard curve was also included to enable conversion of fluorescence signal to molar concentration of histidine released by the hydrolysis reaction and to ensure the linearity of the fluorescence signal vs. free histidine.
Compounds of Formula (I) disclosed herein were screened for potency in inhibiting CNDP2 enzyme activity in a dose-response experiment. Bestatin was included with each batch of test molecules as a benchmark for assay quality control.

IC50	SMILES
≥ 1000 nM	CC(C)C[C@H](NC(=O)[C@@H](O)[C@H](N)Cc1ccccc1)C(=O)O [bestatin, reference compound]

same assay, conditions: 50 nM purified CNDP2 (Sino Biological), 1 mM Met-His substrate, 30 minutes at 37° C.; TABLE 2

IC50	SMILES
< 100 nM	N[C@H](Cc1ccccc1)[C@H](O)C(=O)N[C@H](C(=O)O)c1ccc(F)c(OC(F)(F)F)c1 [Compound 105, (S)-2-((2S,3R)-3-amino-2-hydroxy-4-phenylbutanamido)-2-(4-fluoro-3-(trifluoromethoxy)phenyl)acetic acid]
≥ 1000 nM	N[C@H](Cc1ccccc1)[C@H](O)C(=O)N[C@@H](C(=O)O)c1ccc(Cl)c(OC(F)(F)F)c1 [Compound 106, (R)-2-((2S,3R)-3-amino-2-hydroxy-4-phenylbutanamido)-2-(4-chloro-3-(trifluoromethoxy)phenyl)acetic acid hydrochloride]
< 100 nM	N[C@H](Cc1ccccc1)[C@H](O)C(=O)N[C@H](C(=O)O)c1ccc(Cl)c(OC(F)(F)F)c1 [Compound 107, (S)-2-((2S,3R)-3-amino-2-hydroxy-4-phenylbutanamido)-2-(4-chloro-3-(trifluoromethoxy)phenyl)acetic acid hydrochloride]
≥ 1000 nM	N[C@H](Cc1ccccc1)[C@H](O)C(=O)N[C@@H](C(=O)O)c1cc(Cl)cc(OC(F)(F)F)c1 [Compound 108, (R)-2-((2S,3R)-3-amino-2-hydroxy-4-phenylbutanamido)-2-(3-chloro-5-(trifluoromethoxy)phenyl)acetic acid hydrochloride]
< 100 nM	N[C@H](Cc1ccccc1)[C@H](O)C(=O)N[C@H](C(=O)O)c1cc(Cl)cc(OC(F)(F)F)c1 [Compound 109, (S)-2-((2S,3R)-3-amino-2-hydroxy-4-phenylbutanamido)-2-(3-chloro-5-(trifluoromethoxy)phenyl)acetic acid hydrochloride]
≥ 1000 nM	N[C@H](Cc1ccccc1)[C@H](O)C(=O)N[C@@H](C(=O)O)c1ccc(Br)c(OC(F)(F)F)c1 [Compound 110, (R)-2-((2S,3R)-3-amino-2-hydroxy-4-phenylbutanamido)-2-(4-bromo-3-(trifluoromethoxy)phenyl)acetic acid hydrochloride]
< 100 nM	N[C@H](Cc1ccccc1)[C@H](O)C(=O)N[C@H](C(=O)O)c1ccc(Br)c(OC(F)(F)F)c1 [Compound 111, (S)-2-((2S,3R)-3-amino-2-hydroxy-4-phenylbutanamido)-2-(4-bromo-3-(trifluoromethoxy)phenyl)acetic acid hydrochloride]
< 100 nM	N[C@H](Cc1ccccc1)[C@H](O)C(=O)N[C@H](C(=O)O)c1ccc(F)c(OC(F)(F)F)c1F [Compound 114, (S)-2-((2S,3R)-3-amino-2-hydroxy-4-phenylbutanamido)-2-(2,4-difluoro-3-(trifluoromethoxy)phenyl)acetic acid hydrochloride]
≥ 1000 nM and 100 to 1000 nM	N[C@H](Cc1ccccc1)[C@H](O)C(=O)N[C@H](C(=O)O)c1cccc2c1OC(F)(F)O2 [Compound 115, (S)-2-((2S,3R)-3-amino-2-hydroxy-4-phenylbutanamido)-2-(2,2-difluorobenzo[d][1,3]dioxol-4-yl)acetic acid hydrochloride]
≥ 1000 nM	N[C@H](Cc1ccccc1)[C@H](O)C(=O)N[C@@H](Cc1ccc(OC(F)(F)F)cc1)C(=O)O [Compound 117, (S)-2-((2S,3R)-3-amino-2-hydroxy-4-phenylbutanamido)-3-(4-(trifluoromethoxy)phenyl)propanoic acid]
< 100 nM	N[C@H](Cc1ccccc1)[C@H](O)C(=O)N[C@@H](Cc1cccc(OC(F)(F)F)c1)C(=O)O [Compound 118, (S)-2-((2S,3R)-3-amino-2-hydroxy-4-phenylbutanamido)-3-(3-(trifluoromethoxy)phenyl)propanoic acid]
100 to 1000 nM	N[C@H](Cc1ccccc1)[C@H](O)C(=O)N[C@@H](Cc1ccc(OC(F)(F)F)c(F)c1)C(=O)O [Compound 119, (S)-2-((2S,3R)-3-amino-2-hydroxy-4-phenylbutanamido)-3-(3-fluoro-4-(trifluoromethoxy)phenyl)propanoic acid]
≥ 1000 nM	N[C@H](Cc1ccc(Cl)cc1)[C@H](O)C(=O)N[C@H](C(=O)O)c1cccc(OC(F)(F)F)c1 [Compound 127, (S)-2-((2S,3R)-3-amino-4-(4-chlorophenyl)-2-hydroxybutanamido)-2-(3-(trifluoromethoxy)phenyl)acetic acid]
≥ 1000 nM	N[C@H](Cc1ccc(Cl)cc1)[C@H](O)C(=O)N[C@@H](C(=O)O)c1cccc(OC(F)(F)F)c1 [Compound 128, (R)-2-((2S,3R)-3-amino-4-(4-chlorophenyl)-2-hydroxybutanamido)-2-(3-(trifluoromethoxy)phenyl)acetic acid]
≥ 1000 nM	N[C@H](Cc1ccc(Br)cc1)[C@H](O)C(=O)N[C@H](C(=O)O)c1cccc(OC(F)(F)F)c1 [Compound 129, (S)-2-((2S,3R)-3-amino-4-(4-bromophenyl)-2-hydroxybutanamido)-2-(3-(trifluoromethoxy)phenyl)acetic acid]
≥ 1000 nM	N[C@H](Cc1ccc(Br)cc1)[C@H](O)C(=O)N[C@@H](C(=O)O)c1cccc(OC(F)(F)F)c1 [Compound 130, (R)-2-((2S,3R)-3-amino-4-(4-bromophenyl)-2-hydroxybutanamido)-2-(3-(trifluoromethoxy)phenyl)acetic acid]
100 to 1000 nM	N[C@H](Cc1ccc(C(F)(F)F)cc1)[C@H](O)C(=O)N[C@@H](C(=O)O)c1cccc(OC(F)(F)F)c1 [Compound 132, (R)-2-((2S,3R)-3-amino-2-hydroxy-4-(4-(trifluoromethyl)phenyl)butanamido)-2-(3-(trifluoromethoxy)phenyl)acetic acid]
≥ 1000 nM	N[C@H](Cc1ccc(C(F)(F)F)cc1)[C@H](O)C(=O)N[C@H](C(=O)O)c1cccc(OC(F)(F)F)c1 [Compound 133]
≥ 1000 nM	N[C@H](Cc1ccc(C(F)(F)F)cc1)[C@H](O)C(=O)N[C@@H](C(=O)O)c1cccc(OC(F)(F)F)c1 [Compound 134]

same assay, conditions: bestatin 10 microM down to 5 pM; consistent across run days

IC50	SMILES
~2000 nM	CC(C)C[C@H](NC(=O)[C@@H](O)[C@H](N)Cc1ccccc1)C(=O)O [bestatin, reference compound]
